pIC50: −log10 of the molar value. Where only a bound is given, the exact number is not on record here.

This note sets out measurements from ChEMBL document CHEMBL5512675, “Design of Selective PARP-1 Inhibitors and Antitumor Studies” (J Med Chem, 2024).

Series [1] addresses Poly [ADP-ribose] polymerase 1 (Mus musculus, UniProt P11103). As to the kind of experiment: Inhibition of recombinant mouse PARP-1 incubated for 16 hrs in presence of NAD+ by liquid scintillation spectrometry based scintillation proximity assay.
Series [2] deals with SK-OV-3. Put plainly: animal or person. Conditions: Mus musculus, SK-OV-3, po, 744 h, read-out: TGI.
Description: Antitumor activity against human SK-OV-3 cells xenografted in female BALB/c nude mouse assessed as tumor growth inhibition at 50 mg/kg, po administered via gavage once daily for 31 days relative to control
In series [3] the target is Poly [ADP-ribose] polymerase 2 (Homo sapiens, UniProt Q9UGN5). As to the kind of experiment: Inhibition of GST-tagged human PARP2 incubated for 30 mins by chemiluminescence based UV/visible spectrophotometric analysis.
In series [4] the target is Poly [ADP-ribose] polymerase 1 (Homo sapiens, UniProt P09874). As to the kind of experiment: Inhibition of GST-tagged human PARP1 incubated for 30 mins by chemiluminescence based UV/visible spectrophotometric analysis.
In series [5] the test system is SK-OV-3. Put plainly: cells. Conditions: Homo sapiens, SK-OV-3, 72 h.
Description: Antiproliferative activity against human SK-OV-3 cells assessed as inhibition of cell proliferation incubated for 72 hrs
Series [6] can be described thus: in vitro. Conditions: human, NCM460 cells.
Description: Cytotoxicity against human NCM460 cells assessed as inhibition of cell proliferation incubated for 72 hrs
The subject of series [7] is HCT-116. Put plainly: cells. Conditions: Homo sapiens, HCT-116, 72 h.
Description: Antiproliferative activity against human HCT-116 cells assessed as inhibition of cell proliferation incubated for 72 hrs
Series [8] can be described thus: in vitro. The note with it: human, H8 cells.
Description: Cytotoxicity against human H8 cells assessed as inhibition of cell proliferation incubated for 72 hrs
For series [9], the system named is HCC1937. As to the kind of experiment: cells. Conditions: Homo sapiens, HCC1937, 72 h.
Description: Antiproliferative activity against human HCC1937 cells harboring BRCA2 mutant assessed as inhibition of cell proliferation incubated for 72 hrs
In series [10] the test system is SiHa. As to the kind of experiment: cells. Conditions: Homo sapiens, 72 h.
Description: Antiproliferative activity against human SiHa cells assessed as inhibition of cell proliferation incubated for 72 hrs
A short description of series [11]: Inhibition of PARP1 Ala755Gln, Gln759Ser and Val762Ile mutant (unknown origin) incubated for 1 hrs in presence of NAD and DNA by ELISA. In general terms: An ELISA detects its analyte on a solid surface through an enzyme-linked reagent.
Series [12] deals with A549. As to the kind of experiment: cells. Conditions: Homo sapiens, A549, 72 h.
Description: Antiproliferative activity against human A549 cells assessed as inhibition of cell proliferation incubated for 72 hrs
Series [13] concerns CAPAN-1. As to the kind of experiment: cells. The note with it: Homo sapiens, CAPAN-1, 72 h.
Description: Antiproliferative activity against human CAPAN-1 cells harboring BRCA1 mutant assessed as inhibition of cell proliferation incubated for 72 hrs
Series [14] deals with C-33-A. As to the kind of experiment: cells. Conditions: Homo sapiens, 72 h.
Description: Antiproliferative activity against human C-33-A cells assessed as inhibition of cell proliferation incubated for 72 hrs

Poly [ADP-ribose] polymerase 1 (Homo sapiens, UniProt P09874), sequence (P09874 whole entry): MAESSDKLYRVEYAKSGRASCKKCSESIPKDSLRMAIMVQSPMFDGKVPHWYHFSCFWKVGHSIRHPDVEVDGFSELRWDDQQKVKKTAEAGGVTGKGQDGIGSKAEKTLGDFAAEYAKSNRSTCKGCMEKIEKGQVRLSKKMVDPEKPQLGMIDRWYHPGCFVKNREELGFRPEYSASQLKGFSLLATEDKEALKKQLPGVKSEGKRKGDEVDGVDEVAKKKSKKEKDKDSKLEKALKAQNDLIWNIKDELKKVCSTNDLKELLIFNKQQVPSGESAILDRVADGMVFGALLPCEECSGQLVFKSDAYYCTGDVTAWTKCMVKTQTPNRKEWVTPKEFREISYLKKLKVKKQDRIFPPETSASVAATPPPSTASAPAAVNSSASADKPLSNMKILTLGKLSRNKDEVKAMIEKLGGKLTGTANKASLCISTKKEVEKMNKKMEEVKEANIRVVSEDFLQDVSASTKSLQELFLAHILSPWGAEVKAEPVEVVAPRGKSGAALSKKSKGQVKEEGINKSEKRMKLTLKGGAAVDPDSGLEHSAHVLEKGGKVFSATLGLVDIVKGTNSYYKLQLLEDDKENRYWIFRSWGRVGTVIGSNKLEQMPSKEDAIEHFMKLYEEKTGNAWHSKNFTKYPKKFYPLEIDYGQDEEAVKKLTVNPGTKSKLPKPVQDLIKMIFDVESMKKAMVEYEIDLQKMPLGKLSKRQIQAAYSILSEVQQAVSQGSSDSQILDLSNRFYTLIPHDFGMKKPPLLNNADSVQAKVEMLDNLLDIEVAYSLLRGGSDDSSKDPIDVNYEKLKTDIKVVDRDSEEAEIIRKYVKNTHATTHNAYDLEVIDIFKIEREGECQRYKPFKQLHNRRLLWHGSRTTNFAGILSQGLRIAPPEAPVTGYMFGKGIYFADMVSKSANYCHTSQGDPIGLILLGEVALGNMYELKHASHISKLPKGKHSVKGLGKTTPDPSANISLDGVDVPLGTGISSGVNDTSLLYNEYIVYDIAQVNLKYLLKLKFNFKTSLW
Poly [ADP-ribose] polymerase 2, sequence (Q9UGN5 whole entry): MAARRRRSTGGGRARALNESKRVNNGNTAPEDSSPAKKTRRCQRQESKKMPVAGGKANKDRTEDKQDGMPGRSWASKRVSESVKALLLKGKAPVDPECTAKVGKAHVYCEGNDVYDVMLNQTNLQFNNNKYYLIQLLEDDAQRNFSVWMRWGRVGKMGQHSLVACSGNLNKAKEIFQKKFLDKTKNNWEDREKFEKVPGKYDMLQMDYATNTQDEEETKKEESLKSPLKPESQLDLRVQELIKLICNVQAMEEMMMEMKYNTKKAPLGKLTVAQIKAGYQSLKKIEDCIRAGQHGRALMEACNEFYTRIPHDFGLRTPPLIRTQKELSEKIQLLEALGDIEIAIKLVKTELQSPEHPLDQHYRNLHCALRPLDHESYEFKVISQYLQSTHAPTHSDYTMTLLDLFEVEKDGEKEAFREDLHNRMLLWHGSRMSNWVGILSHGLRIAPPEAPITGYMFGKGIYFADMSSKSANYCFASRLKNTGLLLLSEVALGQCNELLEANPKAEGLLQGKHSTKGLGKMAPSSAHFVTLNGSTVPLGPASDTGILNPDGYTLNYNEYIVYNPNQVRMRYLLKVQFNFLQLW
Poly [ADP-ribose] polymerase 1 (Mus musculus, UniProt P11103), sequence (P11103 whole entry): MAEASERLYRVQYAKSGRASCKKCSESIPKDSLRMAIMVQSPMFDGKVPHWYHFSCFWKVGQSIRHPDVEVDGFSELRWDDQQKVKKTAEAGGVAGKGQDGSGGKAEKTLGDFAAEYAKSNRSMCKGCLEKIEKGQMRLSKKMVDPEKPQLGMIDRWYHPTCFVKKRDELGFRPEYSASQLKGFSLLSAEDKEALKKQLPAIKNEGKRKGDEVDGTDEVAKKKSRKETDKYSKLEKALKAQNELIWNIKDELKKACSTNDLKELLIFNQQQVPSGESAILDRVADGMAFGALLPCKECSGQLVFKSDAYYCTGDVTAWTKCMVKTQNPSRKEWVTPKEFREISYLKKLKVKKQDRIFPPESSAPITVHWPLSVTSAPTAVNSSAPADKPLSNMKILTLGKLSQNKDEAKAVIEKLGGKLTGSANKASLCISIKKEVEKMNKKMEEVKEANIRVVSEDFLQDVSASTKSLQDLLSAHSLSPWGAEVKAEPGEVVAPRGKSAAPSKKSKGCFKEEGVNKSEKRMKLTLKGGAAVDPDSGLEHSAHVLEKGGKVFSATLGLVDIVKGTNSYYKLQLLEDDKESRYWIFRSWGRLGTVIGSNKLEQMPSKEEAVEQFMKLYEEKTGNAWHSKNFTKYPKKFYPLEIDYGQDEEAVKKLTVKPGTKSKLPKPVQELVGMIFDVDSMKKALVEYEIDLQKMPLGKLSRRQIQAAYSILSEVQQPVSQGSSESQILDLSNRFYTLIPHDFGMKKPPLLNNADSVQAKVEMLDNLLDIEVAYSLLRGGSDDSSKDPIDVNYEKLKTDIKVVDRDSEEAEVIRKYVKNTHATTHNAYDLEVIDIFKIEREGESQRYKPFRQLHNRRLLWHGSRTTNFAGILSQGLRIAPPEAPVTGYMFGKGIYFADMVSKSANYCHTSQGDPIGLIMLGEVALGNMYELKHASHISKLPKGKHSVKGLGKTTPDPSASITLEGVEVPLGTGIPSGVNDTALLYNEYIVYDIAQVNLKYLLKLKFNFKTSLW

As for `Cn1cccc1/C=C1\C(=O)NC(=O)c2ccccc21`, the negative logarithm of the IC50 (pIC50) (in general, the negative decadic logarithm of the IC50, by convention in mol/L) in series [1] was 5.32.

Regarding `COc1cc(/C=N/NC(N)=S)c(Br)c(Br)c1OC`, the inhibition in vivo at 50 mg/kg in series [2] was determined as 57.4%. In addition, the pIC50 in series [3] is 5.81; in [4], 7.37.

`COc1cc(-c2nc3c(C(N)=O)cccc3[nH]2)cc(Br)c1OC(=O)C(C)(C)C`: the pIC50 was 5.68 in [3] and 7.48 in [4].

With `COc1cc(-c2nc3c(C(N)=O)cccc3[nH]2)cc(Br)c1OS(=O)(=O)c1c(C)cc(C)cc1C`, the negative logarithm of the IC50 (pIC50) in series [3] was 5.75; in [4], 7.47.

Turning to `CCCS(=O)(=O)Oc1c(Br)cc(-c2nc3c(C(N)=O)cccc3[nH]2)cc1OC`, the figures for the pIC50 in series [3] and in [4] were 6.12 and 7.30, respectively.

In the case of `O=C(c1cc(Cc2n[nH]c(=O)c3ccccc23)ccc1F)N1CCN(C(=O)C2CC2)CC1` [OLAPARIB], the pIC50 in [5] is 3.78; in series [7] it was less than 3.70; in [9], 4.66; in [10], less than 3.70; in series [11], 7.98; in series [12], less than 3.70. Besides, the pIC50 in series [13] was 4.22; in series [14], less than 3.70. For the same compound, the half-inhibitory concentration (IC50) at 72 h in [6] and in [8] was more than 200 µM in each case.
